This is an account of results in patent publication US8765729B2, “Cancer therapy” (Aeolus Sciences, Inc., priority 2001, dated 2014).

The subject of test [1] is tumor angiogenesis, R230 mammary adenocarcinoma cells in Z-chambers. The experiment in a line: Tumor angiogenesis in Z-chambers (microvessel density). The class given is in vivo, Fisher-344 rats. The note with it: 6 mg/kg i.p. 24 hours before implantation. As to the method:
FIG. 5. Antiangiogenesis: Animals were pretreated with different SOD mimetics (6 mg/kg i.p.) 24 hours before implantation of 2.5 mil./ml R230 mammary adenocarcinoma cells in Z-chambers.
Immunohistochemistry was carried out using procedures described by Hsu et al (Hsu et al., j. Histochem. Cytochem. 29:577-580 (1981)). Briefly, paraffin embedded tissues were sectioned (5 microns) and antigen retrieval was performed using citrate buffer from Biogenex (San Ramon, Calif.). Tissues were treated with primary antibody against tissue transglutaminase (TG100, 1:10, endothelial cell marker, non-reactive to Factor XIIIa) (Neomarkers, Calif.) for 1 hour at 37° C. Secondary antibody (Jackson ImmunoResearch. PA) and tertiary. (Vector, Calif.) antibodies were incubated for 25 minutes at 37° C. and the location of the reaction was visualized with 3,3-diaminobenzidine tetrahydrochloride Sigma (St. Louis, Mo.). Slides were counterstained with hematoxylin and mounted with coverslips. Controls for the immunohistochemistry were treated with mouse IgG instead of primary antibody and were negative in any reactivity. […] Microvessel density was calculated as described by Weidner et al (Weidner et al, J. New Engl. J. Med. 324:1-8 (1991)). Briefly, six hot spots or areas with highest vessels marked by the vessel marker at a high power field (400×) per sample section were selected and number of blood vessel counted. […]

Test [2] in a line: SOD activity (cytochrome C method). It is filed as biochemical. An excerpt: FIGS. 1A-1H show the structures of certain generic and specific definitions of compounds suitable for use in the present invention. With reference to FIG. 1C, mimetics of the invention can be of Formula I or Formula II, or dimeric forms thereof, an example of a dimeric form being shown in FIG. 1D. With reference to FIG. 1H, the SOD activities of certain of the depicted compounds are shown in Table 1 (as measured by the cytochrome C method): […]

The subject of the next test is B16 melanoma tumor. The experiment in a line: B16 melanoma tumor growth in mice treated with SOD mimetic. It is filed as in vivo. The note with it: 6 mg/kg i.p. As to the method: FIGS. 2A-2C. (FIG. 2A) B16 melanoma tumor treated with SOD mimetic. The mimetic was 10113 at a dose of 6 mg/kg given intraperitoneally qd for 5 days. (FIG. 2B) Mammary adenocarcinoma treated with SOD mimetic. 10113 was given intraperitoneally at a dose of 6 mg/kg/day for 16 days. Radiation therapy (RT), 21 Gy, was given on day 8 or 9. (FIG. 2C) Fischer 344 rats with subcutaneously implanted R3230 AC mammary adenocarcinomas received Radiation treatment (21 Gy Day 1), AEOL 10113 (6 mg/kg/day IP Day 1 to 20), the combination Radiation and AEOL 10113 (as above), or Control treatment.
The effect of the MnTE-2-PyP (manganese(III) tetrakis(N-ethylpyridinium-2-yl)porphyrin) on tumor growth and radiation response in two tumor models has been tested. […] The effect of the SOD mimetic. MnTE-2-PyP, on tumor growth and radiation response has been tested in a rat model.

A further test relates to A549 cells. The experiment in a line: 3H-thymidine incorporation (DNA synthesis) in A549 cells. It is filed as cell-based, human. The settings on record: 4 μM, 24 hours. As to the method:
FIG. 16. A549 cells were grown 50% confluence in 24 well plates in complete media. Cells were then incubated for 24 hours with the above concentrations of drug and ^3H-thymidine (to assess DNA synthesis). After three washes in PBS, the cells were homogenized and the radioactivity counted. At 4 μM MnTE-2-PyP, there was a 50% inhibition of incorporation of ^3H-thymidine.

The test system of test [3] is R3230 mammary adenocarcinoma cells in Z-chambers. Put plainly: Tumor development in Z-chambers. It is filed as in vivo, Fisher-344 rats. The note with it: 6 mg/kg i.p. 24 hours before implantation of 2.5 mil./ml cells. As to the method:
FIG. 4. Animals were pretreated with different SOD mimetics (6 mg/kg i.p.) 24 hours before implantation of 2.5 mil./ml R3230 mammary adenocarcinoma cells in Z-chambers.
These chambers are constructed from customized plexi-glass rings with internal diameter of 10 mm and have a pore on the side. The two open surfaces are covered by nylon mesh (pore size 180 microns, Millipore, Mass.) and glued to the rings. Fibrinogen (Human fibrinogen, plasminogen depleted, CalBiochem) is prepared in DMEM, Gibco BRL) and a concentration of 4-5 mg/ml is utilized for the studies. Although the Fischer rats used in the study are immune competent, this purified batch of fibrinogen has been recognized to be very well conserved across species lines. It has already been shown that early angiogenic response to human fibrinogen is very similar to rat fibrinogen in fibrin gel chambers. The two different types of fibrinogen have also been tested in the Z-Chambers and no difference was found in angiogenic and healing response. Human fibrinogen was used.
The Fibrin Z-Chambers have fibrinogen solution poured inside the chamber through the pore and followed by 2 units of thrombin. […]
The Z-Chambers were harvested on day 1 or 12 post surgery. […] The depth of either the tumor tissue (tumor growth) or granulation tissue (wound healing) was measured with calipers on the 4×6 inch print. […]

`CC[n+]1ccccc1-c1c2nc(c(-c3cccc[n+]3CC)c3ccc([n-]3)c(-c3cccc[n+]3CC)c3nc(c(-c4cccc[n+]4CC)c4ccc1[n-]4)C=C3)C=C2.[Mn+3]` [Compound 10113, manganese(III)tetrakis(N-ethylpyridinium-2-yl)porphyrin]: in test [1], the tumor angiogenesis result is listed as “Significant inhibition of tumor angiogenesis”. Also, the SOD activity in test [2] was 10,648 U/mg. Besides, in the test with B16 melanoma tumor (mice with B16 melanoma), the “inhibition of tumor growth” value is on record as “significant inhibition of tumor growth”. Moreover, the Tumor doubling time in the test on B16 melanoma tumor (control group 2 days) stood at 4 days. For the same compound, the “inhibition of incorporation of 3H-thymidine” value in the test on A549 cells was 50%. The tumor development entry in test [3] is reported as “Significant (p<0.01) inhibition of tumor development”.
